Measured values from patent publication US11117892B2, “Pyrrolo-pyridine derivative compound, method for preparing same, and pharmaceutical composition containing same as active ingredient for prevention or treatment of protein kinase-related diseases” (DAEGU-GYEONGBUK MEDICAL INNOVATION FOUNDATION, priority 2017, dated 2021).

Columns and labels:
Experiment in all cases: scanMAX Kinase assay panel
Assay type in all cases: binding
Details in all cases: read-out: % control
[1] = target: ABL1(Q252H)-nonphosphorylated (Homo sapiens (Human), UniProt P00519, Q252H)
Protocol: (§1) DiscoverX Co. was asked to measure the enzyme (kinase) selectivity, and the experiment was performed using scanMAX™ Kinase assay panel.
(§2) (Example Compound−Positive Control)/(Negative Control−Positive Control)×100 [Equation 1]
(§3) Herein, the positive control indicates the compound showing the % control of 0%, and the negative control indicates DMSO showing the % control of 100%.

[2] = target: CDK2 (Homo sapiens (Human), UniProt P24941)
Protocol: as §1, §2, §3

[3] = target: LIMK1 (Homo sapiens (Human), UniProt P53667)
LIMK1, sequence (P53667 whole entry): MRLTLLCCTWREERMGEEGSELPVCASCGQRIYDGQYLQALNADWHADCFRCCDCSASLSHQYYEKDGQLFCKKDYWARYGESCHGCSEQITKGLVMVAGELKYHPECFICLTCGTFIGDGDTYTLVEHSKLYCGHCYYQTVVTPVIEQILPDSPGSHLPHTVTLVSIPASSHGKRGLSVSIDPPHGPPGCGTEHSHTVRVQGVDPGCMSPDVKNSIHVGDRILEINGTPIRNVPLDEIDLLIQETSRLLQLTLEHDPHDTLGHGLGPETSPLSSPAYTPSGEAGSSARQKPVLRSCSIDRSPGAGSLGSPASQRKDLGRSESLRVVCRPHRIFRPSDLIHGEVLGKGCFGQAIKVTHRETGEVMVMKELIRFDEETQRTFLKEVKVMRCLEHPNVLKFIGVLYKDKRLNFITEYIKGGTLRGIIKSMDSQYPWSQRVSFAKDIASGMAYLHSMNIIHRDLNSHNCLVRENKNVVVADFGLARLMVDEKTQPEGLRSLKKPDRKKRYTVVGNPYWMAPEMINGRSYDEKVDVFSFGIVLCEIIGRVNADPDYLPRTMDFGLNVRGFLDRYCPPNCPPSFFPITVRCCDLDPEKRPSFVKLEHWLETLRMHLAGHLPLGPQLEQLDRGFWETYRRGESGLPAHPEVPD
Protocol: as §1, §2, §3

[4] = target: CDKL1 (Homo sapiens (Human), UniProt Q00532)
Protocol: as §1, §2, §3

[5] = target: FAK (Homo sapiens (Human), UniProt Q05397)
Protocol: as §1, §2, §3

[6] = target: p38-alpha (Homo sapiens (Human), UniProt Q16539)
Protocol: as §1, §2, §3

[7] = target: EIF2AK1 (Homo sapiens (Human), UniProt Q9BQI3)
Protocol: as §1, §2, §3

[8] = target: LATS2 (Homo sapiens (Human), UniProt Q9NRM7)
Protocol: as §1, §2, §3

[9] = target: ABL1(F317I)-nonphosphorylated (Homo sapiens (Human), UniProt P00519, F317I)
Protocol: as §1, §2, §3

[10] = target: PCTK1 (Homo sapiens (Human), UniProt Q00536)
Protocol: as §1, §2, §3

[11] = target: ULK2 (Homo sapiens (Human), UniProt Q8IYT8)
ULK2, sequence (Q8IYT8 whole entry): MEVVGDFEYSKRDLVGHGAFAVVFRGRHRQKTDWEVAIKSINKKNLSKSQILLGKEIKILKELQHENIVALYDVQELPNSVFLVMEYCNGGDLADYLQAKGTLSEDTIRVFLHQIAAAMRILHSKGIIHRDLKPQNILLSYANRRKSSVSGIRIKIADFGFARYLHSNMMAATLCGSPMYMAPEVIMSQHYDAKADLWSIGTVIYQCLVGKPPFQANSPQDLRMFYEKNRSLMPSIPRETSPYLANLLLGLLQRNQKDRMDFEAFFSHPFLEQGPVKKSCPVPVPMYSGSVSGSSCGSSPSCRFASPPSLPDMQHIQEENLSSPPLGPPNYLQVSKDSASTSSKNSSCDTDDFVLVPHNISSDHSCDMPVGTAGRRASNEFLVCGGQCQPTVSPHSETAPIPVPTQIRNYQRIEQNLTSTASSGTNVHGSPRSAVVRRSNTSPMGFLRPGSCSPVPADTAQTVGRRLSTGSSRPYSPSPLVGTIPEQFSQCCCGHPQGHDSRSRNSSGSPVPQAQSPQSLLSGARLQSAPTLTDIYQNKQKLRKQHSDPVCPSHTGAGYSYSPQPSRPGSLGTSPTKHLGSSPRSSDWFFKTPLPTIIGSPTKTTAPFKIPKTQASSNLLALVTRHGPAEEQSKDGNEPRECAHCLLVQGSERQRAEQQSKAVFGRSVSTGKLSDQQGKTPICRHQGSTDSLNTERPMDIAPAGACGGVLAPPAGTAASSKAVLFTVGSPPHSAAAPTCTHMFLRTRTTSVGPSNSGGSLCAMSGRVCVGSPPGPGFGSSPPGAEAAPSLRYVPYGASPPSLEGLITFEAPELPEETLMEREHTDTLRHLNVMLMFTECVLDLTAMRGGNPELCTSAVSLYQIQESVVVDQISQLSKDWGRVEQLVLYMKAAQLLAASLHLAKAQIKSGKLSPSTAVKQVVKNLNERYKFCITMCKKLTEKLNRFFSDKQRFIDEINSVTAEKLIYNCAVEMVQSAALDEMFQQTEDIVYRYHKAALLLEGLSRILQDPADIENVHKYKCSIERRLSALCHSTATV
Protocol: as §1, §2, §3

[12] = target: PAK3 (Homo sapiens (Human), UniProt O75914)
Protocol: as §1, §2, §3

[13] = target: ABL1(Y253F)-phosphorylated (Homo sapiens (Human), UniProt P00519, Y253F)
Protocol: as §1, §2, §3

[14] = target: STK39 (Homo sapiens (Human), UniProt Q9UEW8)
Protocol: as §1, §2, §3

[15] = target: BRSK2 (Homo sapiens (Human), UniProt Q8IWQ3)
Protocol: as §1, §2, §3

[16] = target: MAP3K1 (Homo sapiens (Human), UniProt Q13233)
Protocol: as §1, §2, §3

[17] = target: NEK3 (Homo sapiens (Human), UniProt P51956)
NEK3, sequence (P51956 whole entry): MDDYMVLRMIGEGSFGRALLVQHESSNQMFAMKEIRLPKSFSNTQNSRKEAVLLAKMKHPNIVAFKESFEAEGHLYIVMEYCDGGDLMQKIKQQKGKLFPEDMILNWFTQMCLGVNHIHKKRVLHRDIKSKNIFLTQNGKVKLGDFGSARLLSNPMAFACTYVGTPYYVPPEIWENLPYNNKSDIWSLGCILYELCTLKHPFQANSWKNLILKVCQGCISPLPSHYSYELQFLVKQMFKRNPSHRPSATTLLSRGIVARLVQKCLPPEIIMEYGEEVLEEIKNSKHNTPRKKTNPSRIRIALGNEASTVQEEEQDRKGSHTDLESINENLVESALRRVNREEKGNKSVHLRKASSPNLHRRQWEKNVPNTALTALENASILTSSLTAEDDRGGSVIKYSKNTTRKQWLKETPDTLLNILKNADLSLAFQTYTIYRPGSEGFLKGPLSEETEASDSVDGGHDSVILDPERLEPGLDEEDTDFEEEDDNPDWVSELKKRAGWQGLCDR
Protocol: as §1, §2, §3

[18] = target: CAMK2A (Homo sapiens (Human), UniProt Q9UQM7)
Protocol: as §1, §2, §3

[19] = target: HIPK4 (Homo sapiens (Human), UniProt Q8NE63)
Protocol: as §1, §2, §3

[20] = target: HASPIN (Homo sapiens (Human), UniProt Q8TF76)
HASPIN, sequence (Q8TF76 whole entry): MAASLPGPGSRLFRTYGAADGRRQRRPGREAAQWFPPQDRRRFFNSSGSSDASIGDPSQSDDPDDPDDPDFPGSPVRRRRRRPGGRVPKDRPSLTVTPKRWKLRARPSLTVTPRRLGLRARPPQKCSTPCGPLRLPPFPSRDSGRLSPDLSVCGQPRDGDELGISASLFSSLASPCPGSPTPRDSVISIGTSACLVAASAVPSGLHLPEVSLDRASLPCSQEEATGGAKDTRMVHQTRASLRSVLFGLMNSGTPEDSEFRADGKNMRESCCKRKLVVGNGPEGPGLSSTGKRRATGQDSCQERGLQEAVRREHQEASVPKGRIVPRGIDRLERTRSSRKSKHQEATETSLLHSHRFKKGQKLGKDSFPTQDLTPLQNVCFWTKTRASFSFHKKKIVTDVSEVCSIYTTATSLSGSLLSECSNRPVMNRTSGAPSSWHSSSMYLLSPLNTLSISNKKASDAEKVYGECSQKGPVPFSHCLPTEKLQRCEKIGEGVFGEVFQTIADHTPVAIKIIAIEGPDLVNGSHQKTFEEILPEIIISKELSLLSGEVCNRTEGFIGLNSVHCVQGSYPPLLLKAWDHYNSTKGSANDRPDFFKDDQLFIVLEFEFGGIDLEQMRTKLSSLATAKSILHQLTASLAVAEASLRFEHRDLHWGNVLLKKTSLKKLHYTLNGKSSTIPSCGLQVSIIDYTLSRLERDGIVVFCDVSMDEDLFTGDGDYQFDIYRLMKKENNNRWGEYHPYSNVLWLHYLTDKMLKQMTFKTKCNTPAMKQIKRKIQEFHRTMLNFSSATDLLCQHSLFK
Protocol: as §1, §2, §3

[21] = target: BRAF (Homo sapiens (Human), UniProt P15056)
Protocol: as §1, §2, §3

[22] = target: PIP5K1A (Homo sapiens (Human), UniProt Q99755)
PIP5K1A, sequence (Q99755 whole entry): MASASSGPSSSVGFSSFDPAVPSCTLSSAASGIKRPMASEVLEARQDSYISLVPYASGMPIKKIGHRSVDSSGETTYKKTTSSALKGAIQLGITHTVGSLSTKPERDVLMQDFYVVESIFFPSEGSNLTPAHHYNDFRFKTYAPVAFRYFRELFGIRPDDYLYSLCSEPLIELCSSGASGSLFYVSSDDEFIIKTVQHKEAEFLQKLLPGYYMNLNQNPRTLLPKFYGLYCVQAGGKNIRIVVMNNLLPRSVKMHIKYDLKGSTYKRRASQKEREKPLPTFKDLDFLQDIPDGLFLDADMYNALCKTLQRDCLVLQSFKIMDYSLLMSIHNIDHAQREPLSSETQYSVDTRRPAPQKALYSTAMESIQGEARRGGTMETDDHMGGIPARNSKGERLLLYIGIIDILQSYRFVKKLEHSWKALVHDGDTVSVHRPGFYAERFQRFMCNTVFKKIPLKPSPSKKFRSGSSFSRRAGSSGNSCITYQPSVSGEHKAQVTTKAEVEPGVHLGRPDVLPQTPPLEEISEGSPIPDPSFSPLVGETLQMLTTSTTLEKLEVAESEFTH
Protocol: as §1, §2, §3

[23] = target: NEK6 (Homo sapiens (Human), UniProt Q9HC98)
Protocol: as §1, §2, §3

[24] = target: FES (Homo sapiens (Human), UniProt P07332)
Protocol: as §1, §2, §3

[25] = target: JNK1 (Homo sapiens (Human), UniProt P45983)
Protocol: as §1, §2, §3

[26] = target: CSNK2A1 (Homo sapiens (Human), UniProt P68400)
Protocol: as §1, §2, §3

[27] = target: PLK4 (Homo sapiens (Human), UniProt O00444)
Protocol: as §1, §2, §3

[28] = target: MAP3K2 (Homo sapiens (Human), UniProt Q9Y2U5)
Protocol: as §1, §2, §3

[29] = target: ERK5 (Homo sapiens (Human), UniProt Q13164)
Protocol: as §1, §2, §3

[30] = target: PIK3C2G (Homo sapiens (Human), UniProt O75747)
Protocol: as §1, §2, §3

[31] = target: EGFR(L747-E749del, A750P) (Homo sapiens (Human), UniProt P00533, A750P/DEL747-749)
Protocol: as §1, §2, §3

[32] = target: TIE2 (Homo sapiens (Human), UniProt Q02763)
Protocol: as §1, §2, §3

[33] = target: PIK3CA(M1043I) (Homo sapiens (Human), UniProt P42336, M1043I)
Protocol: as §1, §2, §3

[34] = target: FYN (Homo sapiens (Human), UniProt P06241)
Protocol: as §1, §2, §3

[35] = target: SRC (Homo sapiens (Human), UniProt P12931)
Protocol: as §1, §2, §3

[36] = target: PRKCE (Homo sapiens (Human), UniProt Q02156)
PRKCE, sequence (Q02156 whole entry): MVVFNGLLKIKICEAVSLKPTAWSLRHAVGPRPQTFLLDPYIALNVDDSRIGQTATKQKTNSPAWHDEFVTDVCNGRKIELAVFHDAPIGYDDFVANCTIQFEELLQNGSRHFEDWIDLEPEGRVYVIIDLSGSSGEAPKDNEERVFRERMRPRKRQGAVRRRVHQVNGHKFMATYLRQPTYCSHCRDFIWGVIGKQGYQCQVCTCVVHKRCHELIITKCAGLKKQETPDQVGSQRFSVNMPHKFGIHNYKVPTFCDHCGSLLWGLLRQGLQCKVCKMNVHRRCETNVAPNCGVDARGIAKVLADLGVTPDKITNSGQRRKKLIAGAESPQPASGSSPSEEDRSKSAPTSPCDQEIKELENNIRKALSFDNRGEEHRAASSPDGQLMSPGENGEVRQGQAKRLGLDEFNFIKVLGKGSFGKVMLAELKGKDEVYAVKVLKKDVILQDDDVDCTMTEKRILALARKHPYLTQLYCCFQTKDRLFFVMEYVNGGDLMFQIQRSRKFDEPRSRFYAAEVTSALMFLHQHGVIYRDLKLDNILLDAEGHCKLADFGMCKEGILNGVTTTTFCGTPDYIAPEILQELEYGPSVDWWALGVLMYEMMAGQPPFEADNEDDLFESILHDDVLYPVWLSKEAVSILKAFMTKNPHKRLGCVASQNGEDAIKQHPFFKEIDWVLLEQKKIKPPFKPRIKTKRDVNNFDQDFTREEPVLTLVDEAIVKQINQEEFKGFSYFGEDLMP
Protocol: as §1, §2, §3

[37] = target: BRSK1 (Homo sapiens (Human), UniProt Q8TDC3)
Protocol: as §1, §2, §3

[38] = target: LKB1 (Homo sapiens (Human), UniProt Q15831)
Protocol: as §1, §2, §3

[39] = target: PAK1 (Homo sapiens (Human), UniProt Q13153)
PAK1, sequence (Q13153 whole entry): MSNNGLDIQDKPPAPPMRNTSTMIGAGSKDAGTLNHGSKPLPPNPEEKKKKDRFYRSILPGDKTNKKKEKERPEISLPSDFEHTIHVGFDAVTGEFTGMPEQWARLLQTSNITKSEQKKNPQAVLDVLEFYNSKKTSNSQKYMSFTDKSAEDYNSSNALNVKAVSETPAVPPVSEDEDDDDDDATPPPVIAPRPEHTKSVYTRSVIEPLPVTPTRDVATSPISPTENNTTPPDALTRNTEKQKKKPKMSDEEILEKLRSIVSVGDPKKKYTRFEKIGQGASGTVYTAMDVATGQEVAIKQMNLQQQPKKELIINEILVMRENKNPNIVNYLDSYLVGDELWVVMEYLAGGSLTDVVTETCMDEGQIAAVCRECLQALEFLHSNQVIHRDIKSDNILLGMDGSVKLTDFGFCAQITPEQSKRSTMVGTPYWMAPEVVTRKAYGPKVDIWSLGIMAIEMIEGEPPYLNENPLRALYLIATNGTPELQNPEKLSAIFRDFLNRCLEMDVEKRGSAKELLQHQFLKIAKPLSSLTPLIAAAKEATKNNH
Protocol: as §1, §2, §3

Row | Compound | remaining binding at 1 µM [1] | remaining binding at 1 µM [2] | remaining binding at 1 µM [3] | remaining binding at 1 µM [4] | remaining binding at 1 µM [5] | remaining binding at 1 µM [6] | remaining binding at 1 µM [7] | remaining binding at 1 µM [8] | remaining binding at 1 µM [9] | remaining binding at 1 µM [10] | remaining binding at 1 µM [11] | remaining binding at 1 µM [12] | remaining binding at 1 µM [13] | remaining binding at 1 µM [14] | remaining binding at 1 µM [15] | remaining binding at 1 µM [16] | remaining binding at 1 µM [17] | remaining binding at 1 µM [18] | remaining binding at 1 µM [19] | remaining binding at 1 µM [20] | further results
1 | CCNc1cc(Nc2ccc(C(=O)N3CCC(N4CCOCC4)CC3)cc2OC)nc2[nH]cc(C#N)c12 [Example 18, 4-(ethylamino)-6-((2-methoxy-4-(4-morpholinopiperidine-1-carbonyl)phenyl)amino)-1H-pyrrolo[2,3-b]pyridine-3-carbonitrile] | 95% | 100% | 92% | 89% | 78% | 100% | 92% | 26% | 89% | 98% | 67% | 93% | 89% | 26% | 96% | 90% | 87% | 72% | 100% | 7.6% | remaining binding at 1 µM [21]: 83%; remaining binding at 1 µM [22]: 100%; remaining binding at 1 µM [23]: 97%; remaining binding at 1 µM [24]: 89%; remaining binding at 1 µM [25]: 0%; remaining binding at 1 µM [26]: 83%; remaining binding at 1 µM [27]: 40%; remaining binding at 1 µM [28]: 79%; remaining binding at 1 µM [29]: 20%; remaining binding at 1 µM [30]: 92%; remaining binding at 1 µM [31]: 100%; remaining binding at 1 µM [32]: 82%; remaining binding at 1 µM [33]: 100%; remaining binding at 1 µM [34]: 78%; remaining binding at 1 µM [35]: 100%; remaining binding at 1 µM [36]: 77%; remaining binding at 1 µM [37]: 94%; remaining binding at 1 µM [38]: 62%; remaining binding at 1 µM [39]: 92%
2 | CCNc1cc(Nc2ccc(C(=O)N3CCC(N4CCOCC4)CC3)cc2OC)nc2[nH]cc(C(F)(F)F)c12 [Example 57, (4-((4-(ethylamino)-3-(trifluoromethyl)-1H-pyrrolo[2,3-b]pyridin-6-yl)amino)-3-methoxyphenyl) (4-morpholinopiperidin-1-yl)methanone] | 54% | 100% | 99% | 63% | 77% | 83% | 99% | 100% | 96% | 83% | 93% | 83% | 100% | 43% | 79% | 79% | 93% | 72% | 86% | 70% | remaining binding at 1 µM [21]: 98%; remaining binding at 1 µM [22]: 88%; remaining binding at 1 µM [23]: 84%; remaining binding at 1 µM [24]: 87%; remaining binding at 1 µM [25]: 40%; remaining binding at 1 µM [26]: 100%; remaining binding at 1 µM [27]: 47%; remaining binding at 1 µM [28]: 100%; remaining binding at 1 µM [29]: 50%; remaining binding at 1 µM [30]: 100%; remaining binding at 1 µM [31]: 94%; remaining binding at 1 µM [32]: 89%; remaining binding at 1 µM [33]: 99%; remaining binding at 1 µM [34]: 87%; remaining binding at 1 µM [35]: 100%; remaining binding at 1 µM [36]: 64%; remaining binding at 1 µM [37]: 94%; remaining binding at 1 µM [38]: 92%; remaining binding at 1 µM [39]: 73%
